IC50 data for 2 compounds are collected here from ChEMBL document CHEMBL1201862, “PubChem BioAssay data set” (2004).

Activity calls are given as the source filed them. No stated cut-off is given here; in the data, actives have a measured IC50 and inactives only a lower limit.

The target of this assay is Envelope glycoprotein gp160 (Human immunodeficiency virus 1, UniProt Q6QLK5). Put plainly: inhibitors of HIV fusion peptide binding, primary screen, biochemical, uHTS, fluorescence dequenching (AID 1986).
Sequence of Envelope glycoprotein gp160 (Q6QLK5 whole entry, the tested form may be a part): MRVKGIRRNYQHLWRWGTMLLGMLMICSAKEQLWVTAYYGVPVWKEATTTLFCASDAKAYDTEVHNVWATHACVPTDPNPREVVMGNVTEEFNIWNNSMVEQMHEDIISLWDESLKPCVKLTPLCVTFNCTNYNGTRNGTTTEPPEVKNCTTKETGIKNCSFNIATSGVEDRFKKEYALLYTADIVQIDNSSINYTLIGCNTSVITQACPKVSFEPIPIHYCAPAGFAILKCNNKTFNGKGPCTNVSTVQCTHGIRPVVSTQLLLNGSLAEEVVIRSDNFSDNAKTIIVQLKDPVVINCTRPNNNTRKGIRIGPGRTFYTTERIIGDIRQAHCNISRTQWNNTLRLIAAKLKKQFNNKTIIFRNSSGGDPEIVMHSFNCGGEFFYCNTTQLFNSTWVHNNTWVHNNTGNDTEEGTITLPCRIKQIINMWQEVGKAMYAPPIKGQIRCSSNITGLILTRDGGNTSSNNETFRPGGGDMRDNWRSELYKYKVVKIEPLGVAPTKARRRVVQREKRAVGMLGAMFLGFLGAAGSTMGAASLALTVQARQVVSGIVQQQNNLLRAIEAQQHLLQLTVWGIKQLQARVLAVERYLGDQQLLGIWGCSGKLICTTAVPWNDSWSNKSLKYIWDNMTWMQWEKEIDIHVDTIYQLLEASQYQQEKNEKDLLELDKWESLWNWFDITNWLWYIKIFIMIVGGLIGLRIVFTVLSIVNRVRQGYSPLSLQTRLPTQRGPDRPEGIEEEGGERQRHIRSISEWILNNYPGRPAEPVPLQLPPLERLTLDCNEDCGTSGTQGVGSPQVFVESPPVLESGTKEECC

For `N#Cc1c(-c2cccs2)nc(SCc2ccc(Cl)cc2)[nH]c1=O`, the half-maximal inhibitory concentration (IC50) (as a rule, the concentration that gives 50% inhibition) is 11.1 µM (active). The result for `O=C(O)CSc1cc(C(=O)c2cc(F)ccc2O)cn2c(=O)c3c(-c4ccccc4)csc3nc12` reads 14.9 µM (active).
